The subject of this experiment is Hepatitis C virus. Put plainly: Antiviral activity against Hepatitis C virus infected in human Huh7.5.1 cells after 72 hrs by focus formation assay. It counts as functional, cell-based, Hepacivirus hominis. To be noted: Huh-7.5.1, 72 h.

Each structure is given as a SMILES string.

In the case of `C=CC[C@]1(C(=O)c2ccccc2)C=CCN(Cc2ccccc2)[C@H]1CC#N`, the IC50 (commonly the concentration that gives 50% inhibition) came out at 15.4 µM. The value for `N#CC[C@H]1C(C(=O)c2ccccc2)=CC=CN1Cc1ccccc1` was 10.8 µM.

For the origin of these results see ChEMBL document CHEMBL4033617, “Stereo-controlled synthesis of functionalized tetrahydropyridines based on the cyanomethylation of 1,6-dihydropyridines and generation of anti-hepatitis C virus agents” (Bioorg Med Chem, 2017).
